This note sets out measurements from ChEMBL document CHEMBL4425154, “New P2X3 receptor antagonists. Part 2: Identification and SAR of quinazolinones” (Bioorg Med Chem Lett, 2016).

The conditions of the data set: human, microsomes, 2.5 µM.
Take `CNc1ccc(-c2ccccc2S(N)(=O)=O)cc1C(=O)NCCc1cc(OC)ccc1OC`: the CLH is 11.5 mL/h/kg.
`NS(=O)(=O)c1ccccc1-c1ccc2ncnc(NCc3ccc(Cl)nc3)c2c1` displayed a CLH of 0.024 mL/h/kg.
In turn, `COc1ccc(OC)c(CCN2CCc3ccc(-c4ccccc4S(N)(=O)=O)cc3C2)c1` yielded a CLH of 1.38 mL/h/kg.
Take `COc1cc(CCn2cnc3ccc(-c4noc(C)n4)cc3c2=O)cc(OC)c1`: the CLH worked out at 1.32 mL/h/kg.
Take `COc1cc(CCn2cnc3ccc(-c4ccccc4S(=O)(=O)N(C)C)cc3c2=O)cc(OC)c1`: the CLH stood at 17.6 mL/h/kg.
Compound `COc1ccc(OC)c(C(C)n2cnc3ccc(-c4ccccc4S(N)(=O)=O)cc3c2=O)c1` (stereo unspecified) returned a CLH of 2.88 mL/h/kg.
